# In PubChem BioAssay (NCI):
#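 Protocol summary: plate cells (96-well), add compound at 5 concentrations, incubate 48 h, interpolate endpoints linearly. GI50 = concentration required for 50% inhibition of growth. TGI denotes the concentration required for complete inhibition of growth.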
# What was measured:
# Experiment in all cases: NCI-60 cell line screen, 48 h
# 786-0 renal = system: 786-0 renal
# A498 renal = system: A498 renal
# A549 NSCLC = system: A549 NSCLC
# ACHN renal = system: ACHN renal
# BT-549 breast = system: BT-549 breast
# CAKI-1 renal = system: CAKI-1 renal
# CCRF-CEM leukemia = system: CCRF-CEM leukemia
# COLO 205 colon = system: COLO 205 colon
# DU-145 prostate = system: DU-145 prostate
# EKVX NSCLC = system: EKVX NSCLC
# HCC-2998 colon = system: HCC-2998 colon
# HCT-116 colon = system: HCT-116 colon
# HCT-15 colon = system: HCT-15 colon
# HL-60(TB) leukemia = system: HL-60(TB) leukemia
# HOP-62 NSCLC = system: HOP-62 NSCLC
# HOP-92 NSCLC = system: HOP-92 NSCLC
# HS 578T breast = system: HS 578T breast
# HT29 colon = system: HT29 colon
# IGROV1 ovarian = system: IGROV1 ovarian
# K-562 leukemia = system: K-562 leukemia
# KM12 colon = system: KM12 colon
# LOX IMVI melanoma = system: LOX IMVI melanoma
# M14 melanoma = system: M14 melanoma
# MALME-3M melanoma = system: MALME-3M melanoma
# MCF7 breast = system: MCF7 breast
# MDA-MB-435 = system: MDA-MB-435
# MDA-MB-468 breast = system: MDA-MB-468 breast
# MOLT-4 leukemia = system: MOLT-4 leukemia
# NCI-H226 lung = system: NCI-H226 lung
# NCI-H23 lung = system: NCI-H23 lung
# NCI-H460 lung = system: NCI-H460 lung
# NCI-H522 lung = system: NCI-H522 lung
# NCI/ADR-RES ovarian = system: NCI/ADR-RES ovarian
# OVCAR-3 ovarian = system: OVCAR-3 ovarian
# OVCAR-4 ovarian = system: OVCAR-4 ovarian
# OVCAR-5 ovarian = system: OVCAR-5 ovarian
# OVCAR-8 ovarian = system: OVCAR-8 ovarian
# PC-3 prostate = system: PC-3 prostate
# RPMI-8226 leukemia = system: RPMI-8226 leukemia
# RXF 393 renal = system: RXF 393 renal
# SF-268 CNS = system: SF-268 CNS
# SF-295 CNS = system: SF-295 CNS
# SF-539 CNS = system: SF-539 CNS
# SK-MEL-2 melanoma = system: SK-MEL-2 melanoma
# SK-MEL-5 melanoma = system: SK-MEL-5 melanoma
# SK-OV-3 ovarian = system: SK-OV-3 ovarian
# SN12C renal = system: SN12C renal
# SNB-19 CNS = system: SNB-19 CNS
# SNB-75 CNS = system: SNB-75 CNS
# SW-620 colon = system: SW-620 colon
# T-47D breast = system: T-47D breast
# TK-10 renal = system: TK-10 renal
# U251 CNS = system: U251 CNS
# UACC-257 melanoma = system: UACC-257 melanoma
# UACC-62 melanoma = system: UACC-62 melanoma
smiles,measurement,setting,value
Clc1ccc(/C=N/Nc2ncnc3sc4c(c23)CCN(Cc2ccccc2)C4)cc1,GI50,786-0 renal,3.85 µM
same,TGI,786-0 renal,14.8 µM
same,GI50,A498 renal,25.8 µM
same,TGI,A498 renal,59.2 µM
same,GI50,A549 NSCLC,12.1 µM
same,TGI,A549 NSCLC,> 100 µM
same,GI50,ACHN renal,15.8 µM
same,TGI,ACHN renal,> 100 µM
same,GI50,BT-549 breast,23.4 µM
same,TGI,BT-549 breast,> 100 µM
same,GI50,CAKI-1 renal,> 100 µM
same,TGI,CAKI-1 renal,> 100 µM
same,GI50,CCRF-CEM leukemia,3.51 µM
same,TGI,CCRF-CEM leukemia,25.5 µM
same,GI50,COLO 205 colon,3.52 µM
same,TGI,COLO 205 colon,12.9 µM
same,GI50,DU-145 prostate,5.67 µM
same,TGI,DU-145 prostate,> 100 µM
same,GI50,EKVX NSCLC,65.6 µM
same,TGI,EKVX NSCLC,> 100 µM
same,GI50,HCC-2998 colon,10.7 µM
same,TGI,HCC-2998 colon,> 100 µM
same,GI50,HCT-116 colon,3.04 µM
same,TGI,HCT-116 colon,10.4 µM
same,GI50,HCT-15 colon,4.04 µM
same,TGI,HCT-15 colon,25.2 µM
same,GI50,HL-60(TB) leukemia,5.59 µM
same,TGI,HL-60(TB) leukemia,43 µM
same,GI50,HOP-62 NSCLC,4.8 µM
same,TGI,HOP-62 NSCLC,25.2 µM
same,GI50,HOP-92 NSCLC,2.4 µM
same,TGI,HOP-92 NSCLC,6.7 µM
same,GI50,HS 578T breast,6.33 µM
same,TGI,HS 578T breast,> 100 µM
same,GI50,HT29 colon,3.37 µM
same,TGI,HT29 colon,13.7 µM
same,GI50,IGROV1 ovarian,20.1 µM
same,TGI,IGROV1 ovarian,> 100 µM
same,GI50,K-562 leukemia,4.16 µM
same,TGI,K-562 leukemia,54.9 µM
same,GI50,KM12 colon,11.9 µM
same,TGI,KM12 colon,> 100 µM
same,GI50,LOX IMVI melanoma,2.9 µM
same,TGI,LOX IMVI melanoma,9.74 µM
same,GI50,M14 melanoma,2.65 µM
same,TGI,M14 melanoma,7.66 µM
same,GI50,MALME-3M melanoma,4.96 µM
same,TGI,MALME-3M melanoma,> 100 µM
same,GI50,MCF7 breast,2.98 µM
same,TGI,MCF7 breast,15 µM
same,GI50,MDA-MB-435,7.26 µM
same,TGI,MDA-MB-435,> 100 µM
same,GI50,MDA-MB-468 breast,3.72 µM
same,TGI,MDA-MB-468 breast,15.8 µM
same,GI50,MOLT-4 leukemia,4.53 µM
same,TGI,MOLT-4 leukemia,34.5 µM
same,GI50,NCI-H226 lung,2.31 µM
same,TGI,NCI-H226 lung,7.41 µM
same,GI50,NCI-H23 lung,12 µM
same,TGI,NCI-H23 lung,> 100 µM
same,GI50,NCI-H460 lung,2.26 µM
same,TGI,NCI-H460 lung,4.88 µM
same,GI50,NCI-H522 lung,23.9 µM
same,TGI,NCI-H522 lung,> 100 µM
same,GI50,NCI/ADR-RES ovarian,2.34 µM
same,TGI,NCI/ADR-RES ovarian,5.84 µM
same,GI50,OVCAR-3 ovarian,2.49 µM
same,TGI,OVCAR-3 ovarian,5.33 µM
same,GI50,OVCAR-4 ovarian,2.76 µM
same,TGI,OVCAR-4 ovarian,7.52 µM
same,GI50,OVCAR-5 ovarian,20.9 µM
same,TGI,OVCAR-5 ovarian,> 100 µM
same,GI50,OVCAR-8 ovarian,1.95 µM
same,TGI,OVCAR-8 ovarian,3.99 µM
same,GI50,PC-3 prostate,3.63 µM
same,TGI,PC-3 prostate,32.5 µM
same,GI50,RPMI-8226 leukemia,5.39 µM
same,TGI,RPMI-8226 leukemia,84.9 µM
same,GI50,RXF 393 renal,10.2 µM
same,TGI,RXF 393 renal,26.6 µM
same,GI50,SF-268 CNS,8.38 µM
same,TGI,SF-268 CNS,> 100 µM
same,GI50,SF-295 CNS,4.19 µM
same,TGI,SF-295 CNS,21.6 µM
same,GI50,SF-539 CNS,4.1 µM
same,TGI,SF-539 CNS,18.2 µM
same,GI50,SK-MEL-2 melanoma,16 µM
same,TGI,SK-MEL-2 melanoma,42.7 µM
same,GI50,SK-MEL-5 melanoma,18.6 µM
same,TGI,SK-MEL-5 melanoma,> 100 µM
same,GI50,SK-OV-3 ovarian,20.8 µM
same,TGI,SK-OV-3 ovarian,78.4 µM
same,GI50,SN12C renal,9.09 µM
same,TGI,SN12C renal,> 100 µM
same,GI50,SNB-19 CNS,6.06 µM
same,TGI,SNB-19 CNS,> 100 µM
same,GI50,SNB-75 CNS,3.21 µM
same,TGI,SNB-75 CNS,41.2 µM
same,GI50,SW-620 colon,3.85 µM
same,TGI,SW-620 colon,31.9 µM
same,GI50,T-47D breast,22.5 µM
same,TGI,T-47D breast,> 100 µM
same,GI50,TK-10 renal,20.8 µM
same,TGI,TK-10 renal,41.9 µM
same,GI50,U251 CNS,4 µM
same,TGI,U251 CNS,16.6 µM
same,GI50,UACC-257 melanoma,9.6 µM
same,TGI,UACC-257 melanoma,76.9 µM
same,GI50,UACC-62 melanoma,30.5 µM
same,TGI,UACC-62 melanoma,> 100 µM
